From US10758534B2 (Vertex Pharmaceuticals Incorporated, priority 2014, dated 2020)

target: T1, F508del (Homo sapiens, UniProt P13569, DEL508-508); experiment: Protocol 1: membrane potential optical assay (FLIPR III, voltage sensing dye), identification of potentiator compounds; type: cell-based; conditions: Table 3, compounds of Table 1
T1 construct: expressed in transfected cells
In short: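 NIH3T3 F508del cells, 27° C × 24 hrs; compound/DMSO pretreat → redistribution dye load → single forskolin addition with Cl⁻ gradient (gluconate-substituted bath, HEPES pH 7.4). FLIPR III membrane-potential fluorescence read.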

T1 sequence (P13569 with tags, fused parts or gaps DEL508-508): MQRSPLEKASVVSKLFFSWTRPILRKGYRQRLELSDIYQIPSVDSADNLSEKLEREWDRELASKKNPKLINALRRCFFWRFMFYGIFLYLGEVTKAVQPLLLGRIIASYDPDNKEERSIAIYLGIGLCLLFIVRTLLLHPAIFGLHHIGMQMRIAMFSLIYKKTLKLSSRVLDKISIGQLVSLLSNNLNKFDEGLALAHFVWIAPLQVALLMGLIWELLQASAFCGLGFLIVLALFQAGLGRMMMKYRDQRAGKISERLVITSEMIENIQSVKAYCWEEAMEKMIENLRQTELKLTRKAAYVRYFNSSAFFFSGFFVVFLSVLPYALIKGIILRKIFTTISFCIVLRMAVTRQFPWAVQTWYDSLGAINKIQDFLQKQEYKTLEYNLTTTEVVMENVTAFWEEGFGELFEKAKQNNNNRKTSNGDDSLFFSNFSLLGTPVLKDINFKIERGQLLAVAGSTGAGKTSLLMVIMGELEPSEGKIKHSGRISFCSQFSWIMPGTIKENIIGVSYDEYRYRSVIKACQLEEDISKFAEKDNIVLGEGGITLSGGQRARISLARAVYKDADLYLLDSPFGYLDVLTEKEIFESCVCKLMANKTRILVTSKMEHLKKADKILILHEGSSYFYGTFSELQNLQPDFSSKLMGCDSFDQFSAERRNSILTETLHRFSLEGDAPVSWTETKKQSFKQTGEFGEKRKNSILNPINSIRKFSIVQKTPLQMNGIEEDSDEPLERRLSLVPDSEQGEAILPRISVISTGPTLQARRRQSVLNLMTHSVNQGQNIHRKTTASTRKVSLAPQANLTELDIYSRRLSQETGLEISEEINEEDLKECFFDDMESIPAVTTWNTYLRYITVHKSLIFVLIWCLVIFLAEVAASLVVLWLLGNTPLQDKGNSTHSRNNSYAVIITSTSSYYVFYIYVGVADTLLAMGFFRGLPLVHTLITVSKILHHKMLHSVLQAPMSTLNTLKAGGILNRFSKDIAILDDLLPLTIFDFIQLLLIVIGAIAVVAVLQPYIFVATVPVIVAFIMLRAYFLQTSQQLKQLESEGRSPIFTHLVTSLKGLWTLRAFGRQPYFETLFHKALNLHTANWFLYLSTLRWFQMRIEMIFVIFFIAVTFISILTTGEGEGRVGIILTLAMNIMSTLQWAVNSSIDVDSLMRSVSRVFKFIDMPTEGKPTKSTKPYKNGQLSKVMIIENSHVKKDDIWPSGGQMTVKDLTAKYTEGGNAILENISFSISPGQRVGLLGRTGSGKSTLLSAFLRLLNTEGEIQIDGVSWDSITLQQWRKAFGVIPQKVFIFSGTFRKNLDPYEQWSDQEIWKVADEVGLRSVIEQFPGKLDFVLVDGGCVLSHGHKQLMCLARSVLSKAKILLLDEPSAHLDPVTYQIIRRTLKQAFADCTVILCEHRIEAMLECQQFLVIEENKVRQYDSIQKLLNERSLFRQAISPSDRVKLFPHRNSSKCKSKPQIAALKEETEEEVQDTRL

Row | SMILES | EC30
1 | CC(C)COc1cc(-c2ccc(C(=O)NS(=O)(=O)c3cccc(N)n3)c(N3CC(C)CC3(C)C)n2)ccn1 (centres unmarked) [Compound 1192, N-[(6-amino-2-pyridyl)sulfonyl]-6-(2-isobutoxy-4-pyridyl)-2-(2,2,4-trimethylpyrrolidin-1-yl)pyridine-3-carboxamide] | +++ (“+++” means <3 uM)
2 | CC(C)COc1cc(F)cc(-c2ccc(C(=O)NS(=O)(=O)c3cccc(N)n3)c(N3CCC[C@H](C)C3)n2)c1 [Compound 1193, N-[(6-amino-2-pyridyl)sulfonyl]-6-(3-fluoro-5-isobutoxy-phenyl)-2-[(3S)-3-methyl-1-piperidyl]pyridine-3-carboxamide] | +++ (“+++” means <3 uM)
3 | CC(C)COc1ccc(F)c(-c2ccc(C(=O)NS(=O)(=O)c3cccc(N)n3)c(N3CC(C)CC3(C)C)n2)c1 (centres unmarked) [Compound 1194, N-[(6-amino-2-pyridyl)sulfonyl]-6-(2-fluoro-5-isobutoxy-phenyl)-2-(2,2,4-trimethylpyrrolidin-1-yl)pyridine-3-carboxamide] | +++ (“+++” means <3 uM)
4 | CC1CCN(c2nc3c(cc2C(=O)NS(=O)(=O)c2ccc[nH]c2=O)CCCC3(C)C)CC1 [Compound 1195, 8,8-dimethyl-2-(4-methyl-1-piperidyl)-N-[(2-oxo-1H-pyridin-3-yl)sulfonyl]-6,7-dihydro-5H-quinoline-3-carboxamide] | + (“+” means greater than 10 uM)
5 | CC(C)COc1cc(-c2ccc(C(=O)NS(=O)(=O)c3cccc(N)n3)c(N3[C@H](C)CC[C@@H]3C)n2)ccc1Cl [Compound 1197, N-[(6-amino-2-pyridyl)sulfonyl]-6-(4-chloro-3-isobutoxy-phenyl)-2-[(2S,5R)-2,5-dimethylpyrrolidin-1-yl]pyridine-3-carboxamide] | +++ (“+++” means <3 uM)
6 | Cc1cc(C)c(Oc2nc3c(cc2C(=O)NS(=O)(=O)c2ccc[nH]c2=O)CCC(C)(C)C3)c(C)c1 [Compound 1199, 7,7-dimethyl-N-[(2-oxo-1H-pyridin-3-yl)sulfonyl]-2-(2,4,6-trimethylphenoxy)-6,8-dihydro-5H-quinoline-3-carboxamide] | ++ (“++” means between 3 uM and 10 uM)
7 | Cc1cc(C)c(Oc2nc(-c3cc(OCC(C)C)ccc3Cl)ccc2C(=O)NS(=O)(=O)c2ccc[nH]c2=O)c(C)c1 [Compound 1201, 6-(2-chloro-5-isobutoxy-phenyl)-N-[(2-oxo-1H-pyridin-3-yl)sulfonyl]-2-(2,4,6-trimethylphenoxy)pyridine-3-carboxamide] | +++ (“+++” means <3 uM)
8 | CCCOc1ccc(-c2ccc(C(=O)NS(=O)(=O)c3ccc[nH]c3=O)c(Oc3c(C)cc(C)cc3C)n2)cc1 [Compound 1202, N-[(2-oxo-1H-pyridin-3-yl)sulfonyl]-6-(4-propoxyphenyl)-2-(2,4,6-trimethylphenoxy)pyridine-3-carboxamide] | +++ (“+++” means <3 uM)
9 | CCOc1ccc(-c2ccc(C(=O)NS(=O)(=O)c3nccnc3N)c(NCC3(C)CCOCC3)n2)cc1 [Compound 1203, N-(3-aminopyrazin-2-yl)sulfonyl-6-(4-ethoxyphenyl)-2-[(4-methyltetrahydropyran-4-yl)methylamino]pyridine-3-carboxamide] | + (“+” means greater than 10 uM)
10 | CC(C)COc1cc(F)cc(-c2ccc(C(=O)NS(=O)(=O)c3cccc(N)n3)c(N(C)C(C)c3cccc(Cl)c3)n2)c1 (centres unmarked) [Compound 1205, N-[(6-amino-2-pyridyl)sulfonyl]-2-[1-(3-chlorophenyl)ethyl-methyl-amino]-6-(3-fluoro-5-isobutoxy-phenyl)pyridine-3-carboxamide] | +++ (“+++” means <3 uM)
11 | Cc1cc(C)c(Oc2nc(C(C)(C)C)ccc2C(=O)NS(=O)(=O)c2nccnc2N)c(C)c1 [Compound 1208, N-(3-aminopyrazin-2-yl) sulfonyl-6-tert-butyl-2-(2,4,6-trimethylphenoxy)pyridine-3-carboxamide] | +++ (“+++” means <3 uM)
12 | CC(C)COc1cc(F)cc(-c2ccc(C(=O)NS(=O)(=O)c3cccc(N)n3)c(N3C[C@@H](C)C[C@H](C)C3)n2)c1 [Compound 1210, N-[(6-amino-2-pyridyl)sulfonyl]-2-[(3S,5S)-3,5-dimethyl-1-piperidyl]-6-(3-fluoro-5-isobutoxy-phenyl)pyridine-3-carboxamide] | +++ (“+++” means <3 uM)
13 | CC(C)COc1cc(F)cc(-c2ccc(C(=O)NS(=O)(=O)c3cccc(N)n3)c(O[C@@H]3C[C@H]4CC[C@@H]3C4)n2)c1 [Compound 1216, N-[(6-amino-2-pyridyl)sulfonyl]-6-(3-fluoro-5-isobutoxy-phenyl)-2-[(1R,2R,4S)-norbornan-2-yl]oxy-pyridine-3-carboxamide] | +++ (“+++” means <3 uM)
14 | CCC1CCCN1c1nc(-c2cc(F)cc(OCC(C)C)c2)ccc1C(=O)NS(=O)(=O)c1cccc(N)n1 (centres unmarked) [Compound 1218, N-[(6-amino-2-pyridyl)sulfonyl]-2-(2-ethylpyrrolidin-1-yl)-6-(3-fluoro-5-isobutoxy-phenyl)pyridine-3-carboxamide] | +++ (“+++” means <3 uM)

Second part, the compound after the results:

Row | EC30 | SMILES
15 | ++ (“++” means between 3 uM and 10 uM) | Cc1ccc(-c2ccc(C(=O)NS(=O)(=O)c3cccc(N)n3)c(NCC3(C)CCOCC3)n2)cc1 [Compound 1196, N-[(6-amino-2-pyridyl)sulfonyl]-2-[(4-methyltetrahydropyran-4-yl)methylamino]-6-(p-tolyl)pyridine-3-carboxamide]
16 | +++ (“+++” means <3 uM) | CC(C)Oc1ccc(-c2ccc(C(=O)NS(=O)(=O)c3cccc(N)n3)c(N3[C@H](C)CC[C@H]3C)n2)cn1 [Compound 1198, N-[(6-amino-2-pyridyl)sulfonyl]-2-[(2R,5R)-2,5-dimethylpyrrolidin-1-yl]-6-(6-isopropoxy-3-pyridyl)pyridine-3-carboxamide]
17 | ++ (“++” means between 3 uM and 10 uM) | CCOC1CCN(c2nc(C(C)(C)C)ccc2C(=O)NS(=O)(=O)c2cccc(N)n2)CC1 [Compound 1200, N-[(6-amino-2-pyridyl)sulfonyl]-6-tert-butyl-2-(4-ethoxy-1-piperidyl)pyridine-3-carboxamide]
18 | + (“+” means greater than 10 uM) | Cc1cc(C)c(Oc2nc(-c3ccc(O)cc3C)ccc2C(=O)NS(=O)(=O)c2cccc(N)n2)c(C)c1 [Compound 1204, N-[(6-amino-2-pyridyl)sulfonyl]-6-(4-hydroxy-2-methyl-phenyl)-2-(2,4,6-trimethylphenoxy)pyridine-3-carboxamide]
19 | ++ (“++” means between 3 uM and 10 uM) | CC(C)Oc1ccc(-c2ccc(C(=O)NS(=O)(=O)c3cccc(N)n3)c(N3CCC(C(C)(C)C)C3)n2)cn1 (centres unmarked) [Compound 1206, N-[(6-amino-2-pyridyl)sulfonyl]-2-(3-tert-butylpyrrolidin-1-yl)-6-(6-isopropoxy-3-pyridyl)pyridine-3-carboxamide]
20 | +++ (“+++” means <3 uM) | Cc1cc(C)c(Oc2nc(-c3ccc4c(c3)OCO4)ccc2C(=O)NS(=O)(=O)c2cccc(N)n2)c(C)c1 [Compound 1207, N-[(6-amino-2-pyridyl)sulfonyl]-6-(1,3-benzodioxol-5-yl)-2-(2,4,6-trimethylphenoxy)pyridine-3-carboxamide]
21 | +++ (“+++” means <3 uM) | CC(C)Oc1ccc(-c2ccc(C(=O)NS(=O)(=O)c3cccc(N)n3)c(N3CCC[C@H](c4ccccc4)C3)n2)cn1 [Compound 1209]
22 | ++ (“++” means between 3 uM and 10 uM) | C=C(C)c1ccc(C(=O)NS(=O)(=O)c2cccc(N)n2)c(Oc2c(C)cc(C)cc2C)n1 [Compound 1211, N-[(6-amino-2-pyridyl)sulfonyl]-6-isopropenyl-2-(2,4,6-trimethylphenoxy)pyridine-3-carboxamide]
23 | +++ (“+++” means <3 uM) | COc1ccc(-c2ccc(C(=O)NS(=O)(=O)c3cccc(N)n3)c(Oc3c(C)cc(C)cc3C)n2)c(C)n1 [Compound 1212, N-[(6-amino-2-pyridyl)sulfonyl]-6-(6-methoxy-2-methyl-3-pyridyl)-2-(2,4,6-trimethylphenoxy)pyridine-3-carboxamide]
24 | ++ (“++” means between 3 uM and 10 uM) | Cc1ccc(Oc2nc(-c3cc(F)cc(OC(C)C)c3)ccc2C(=O)NS(=O)(=O)c2cc[nH]n2)c(C)c1 [Compound 1213, 2-(2,4-dimethylphenoxy)-6-(3-fluoro-5-isopropoxy-phenyl)-N-(1H-pyrazol-3-ylsulfonyl)pyridine-3-carboxamide]
25 | ++ (“++” means between 3 uM and 10 uM) | CCOC1CCN(c2nc(-c3ccc(OC(C)C)nc3)ccc2C(=O)NS(=O)(=O)c2cccc(N)n2)CC1 [Compound 1214, N-[(6-amino-2-pyridyl)sulfonyl]-2-(4-ethoxy-1-piperidyl)-6-(6-isopropoxy-3-pyridyl)pyridine-3-carboxamide]
26 | ++ (“++” means between 3 uM and 10 uM) | COc1ccc(-c2ccc(C(=O)NS(=O)(=O)c3cccc(N)n3)c(N3[C@H](C)CC[C@@H]3C)n2)cc1 [Compound 1215, N-[(6-amino-2-pyridyl)sulfonyl]-2-[(2S,5R)-2,5-dimethylpyrrolidin-1-yl]-6-(4-methoxyphenyl)pyridine-3-carboxamide]
27 | + (“+” means greater than 10 uM) | CC(C)(C)c1ccc(C(=O)NS(=O)(=O)c2cccc(N)c2)c(-c2ccc(F)c(F)c2)n1 [Compound 1217, N-(3-aminophenyl)sulfonyl-6-tert-butyl-2-(3,4-difluorophenyl)pyridine-3-carboxamide]
28 | ++ (“++” means between 3 uM and 10 uM) | CC(C)(C)c1ccc(C(=O)NS(=O)(=O)c2cccc(N)n2)c(C2CCCC2)n1 [Compound 1219, N-[(6-amino-2-pyridyl)sulfonyl]-6-tert-butyl-2-cyclopentyl-pyridine-3-carboxamide]
29 | +++ (“+++” means <3 uM) | Cc1cc(C)c(Oc2nc(-n3cc(C)cn3)ccc2C(=O)NS(=O)(=O)c2cccc(N)n2)c(C)c1 [Compound 1220, N-[(6-amino-2-pyridyl)sulfonyl]-6-(4-methylpyrazol-1-yl)-2-(2,4,6-trimethylphenoxy)pyridine-3-carboxamide]
